# Assay: Pulmonary function after vagus nerve disruption followed by drug administration in patients with obstructive lung disease
# Format: in vivo
# Details: drug given after nerve activity-modulating treatment
# Excerpt: For two treatments with similar mechanisms of action (e.g., vagus nerve disruption that eliminates or reduces acetylcholine production and pharmacological inhibition of acetylcholine production or release), one would expect that the combination of such treatments would result in less of an improvement than the combination of two treatments with different/complementary mechanisms of action.
compound,measurement,value
CC(C)[N+]1(C)[C@@H]2CC[C@H]1C[C@@H](OC(=O)C(CO)c1ccccc1)C2 (stereo partly shown) [ipratropium bromide],effect on lung functions of administration after vagus nerve disruption,additive effect
